Experimental data published in ChEMBL document CHEMBL1909046, “DrugMatrix in vitro pharmacology data”.

Assays:
[1] = DRUGMATRIX: ATPase, Na+/K+ enzyme inhibition (substrate: ATP); type: tissue-based, Sus scrofa, Heart; details: Not Active = under 50% inhibition at 10 µM
[2] = DRUGMATRIX: Calcium Channel Type L, Phenylalkylamine radioligand binding (ligand: [3H] (-)-Desmethoxyverapamil (D-888)); type: cell membranes, Rattus norvegicus, Wistar, Brain, Membrane; details: Not Active = under 50% inhibition at 10 µM
[3] = DRUGMATRIX: Serotonin (5-Hydroxytryptamine) 5-HT3 radioligand binding (ligand: [3H] GR-65630); type: cell membranes, Membrane; details: hek293; Not Active = under 50% inhibition at 10 µM
[4] = DRUGMATRIX: Nicotinic Acetylcholine radioligand binding (ligand: [125I] Epibatidine); type: cell membranes, Membrane; details: imr-32; Not Active = under 50% inhibition at 10 µM
[5] = molecular target: T1, Alpha-1B adrenergic receptor (Rattus norvegicus, UniProt P15823); experiment: DRUGMATRIX: Alpha-1B adrenergic receptor radioligand binding (ligand: prazosin); type: cell membranes, Wistar, Liver, Membrane; details: Not Active = under 50% inhibition at 10 µM
T1 sequence (P15823 whole entry): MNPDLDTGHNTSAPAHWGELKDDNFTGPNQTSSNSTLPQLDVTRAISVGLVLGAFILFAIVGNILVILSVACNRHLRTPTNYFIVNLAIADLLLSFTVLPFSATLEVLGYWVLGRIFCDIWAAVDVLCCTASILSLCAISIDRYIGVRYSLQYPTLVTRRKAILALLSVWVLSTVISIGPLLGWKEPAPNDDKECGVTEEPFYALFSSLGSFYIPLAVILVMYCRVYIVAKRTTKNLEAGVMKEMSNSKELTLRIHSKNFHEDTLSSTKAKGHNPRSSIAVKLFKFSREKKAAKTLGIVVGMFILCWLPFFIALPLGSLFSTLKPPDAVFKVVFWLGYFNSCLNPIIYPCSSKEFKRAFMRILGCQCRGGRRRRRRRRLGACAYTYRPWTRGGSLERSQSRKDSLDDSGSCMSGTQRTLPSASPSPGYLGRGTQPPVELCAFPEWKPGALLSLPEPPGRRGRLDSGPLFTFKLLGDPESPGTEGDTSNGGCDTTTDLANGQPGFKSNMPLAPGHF

Melanocortin receptor 4 = Melanocortin receptor 4 (Homo sapiens, UniProt P32245); type: cell membranes, Membrane; details: hek293; also: in other assays of this panel Not Active means under 50% inhibition at 10 µM
[6] = molecular target: T2, 5-hydroxytryptamine receptor 2C (Homo sapiens, UniProt P28335); experiment: DRUGMATRIX: Serotonin (5-Hydroxytryptamine) 5-HT2C radioligand binding (ligand: [3H] Mesulergine); type: cell membranes, CHO-K1, Membrane; details: cho-k1; Not Active = under 50% inhibition at 10 µM
T2 sequence (P28335 whole entry): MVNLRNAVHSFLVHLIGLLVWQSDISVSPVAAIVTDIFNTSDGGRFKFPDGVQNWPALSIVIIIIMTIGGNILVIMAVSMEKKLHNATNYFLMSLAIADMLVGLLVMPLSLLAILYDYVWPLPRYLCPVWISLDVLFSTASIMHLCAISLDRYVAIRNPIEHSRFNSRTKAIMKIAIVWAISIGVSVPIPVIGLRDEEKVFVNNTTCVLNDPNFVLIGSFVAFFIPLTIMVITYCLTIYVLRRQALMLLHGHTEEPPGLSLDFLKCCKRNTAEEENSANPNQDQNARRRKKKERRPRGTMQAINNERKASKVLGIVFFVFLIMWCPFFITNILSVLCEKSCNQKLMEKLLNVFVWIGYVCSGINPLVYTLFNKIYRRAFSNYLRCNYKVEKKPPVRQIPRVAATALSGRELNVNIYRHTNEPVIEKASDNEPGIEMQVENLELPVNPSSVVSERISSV

[7] = molecular target: Kappa-type opioid receptor (Homo sapiens, UniProt P41145); experiment: DRUGMATRIX: Opiate kappa (OP2, KOP) radioligand binding (ligand: [3H] Diprenorphine); type: cell membranes, HEK293, Membrane; details: hek293; Not Active = under 50% inhibition at 10 µM
[8] = DRUGMATRIX: GABAA, Muscimol, Central radioligand binding (ligand: [3H] Muscimol); type: cell membranes, Rattus norvegicus, Wistar, Brain, Membrane; details: Not Active = under 50% inhibition at 10 µM
[9] = molecular target: Beta-1 adrenergic receptor (Homo sapiens, UniProt P08588); experiment: DRUGMATRIX: Adrenergic beta1 radioligand binding (ligand: [125I] Cyanopindolol); type: cell membranes, CHO-K1, Membrane; details: cho-k1; Not Active = under 50% inhibition at 10 µM
[10] = DRUGMATRIX: Glutamate, Kainate radioligand binding (ligand: [3H] Kainic acid); type: cell membranes, Rattus norvegicus, Wistar, Brain, Membrane; details: Not Active = under 50% inhibition at 10 µM
[11] = molecular target: 5-hydroxytryptamine receptor 6 (Homo sapiens, UniProt P50406); type: cell membranes, HeLa, Membrane; details: hela; also: in other assays of this panel Not Active means under 50% inhibition at 10 µM
[12] = molecular target: Sigma non-opioid intracellular receptor 1 (Homo sapiens, UniProt Q99720); experiment: DRUGMATRIX: Sigma1 radioligand binding (ligand: [3H] Haloperidol); type: cell membranes, Jurkat, Membrane; details: jurkat; Not Active = under 50% inhibition at 10 µM
Mu-type opioid receptor = Mu-type opioid receptor (Homo sapiens, UniProt P35372); experiment: DRUGMATRIX: Opiate mu (OP3, MOP) radioligand binding (ligand: [3H] Diprenorphine); type: cell membranes, CHO-K1, Membrane; details: cho-k1; Not Active = under 50% inhibition at 10 µM
Endothelin-1 receptor = molecular target: T3, Endothelin-1 receptor (Homo sapiens, UniProt P25101); type: cell membranes, Membrane; details: cho-k1; also: in other assays of this panel Not Active means under 50% inhibition at 10 µM
T3 sequence (P25101 whole entry): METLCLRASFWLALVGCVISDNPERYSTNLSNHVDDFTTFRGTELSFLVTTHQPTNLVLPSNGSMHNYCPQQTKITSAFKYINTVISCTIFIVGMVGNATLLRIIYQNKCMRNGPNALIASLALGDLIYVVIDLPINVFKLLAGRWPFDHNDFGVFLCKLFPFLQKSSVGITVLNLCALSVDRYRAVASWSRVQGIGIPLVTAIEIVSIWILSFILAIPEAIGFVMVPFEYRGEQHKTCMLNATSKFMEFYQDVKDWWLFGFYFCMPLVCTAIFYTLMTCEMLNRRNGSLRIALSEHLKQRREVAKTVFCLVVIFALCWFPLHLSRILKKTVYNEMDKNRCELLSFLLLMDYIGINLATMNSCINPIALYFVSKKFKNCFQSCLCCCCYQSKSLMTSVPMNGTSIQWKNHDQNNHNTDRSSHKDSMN

[13] = molecular target: T4, Neuropeptide Y receptor type 2 (Homo sapiens, UniProt P49146); type: cell membranes, Membrane; details: kan-ts; also: in other assays of this panel Not Active means under 50% inhibition at 10 µM
T4 sequence (P49146 whole entry): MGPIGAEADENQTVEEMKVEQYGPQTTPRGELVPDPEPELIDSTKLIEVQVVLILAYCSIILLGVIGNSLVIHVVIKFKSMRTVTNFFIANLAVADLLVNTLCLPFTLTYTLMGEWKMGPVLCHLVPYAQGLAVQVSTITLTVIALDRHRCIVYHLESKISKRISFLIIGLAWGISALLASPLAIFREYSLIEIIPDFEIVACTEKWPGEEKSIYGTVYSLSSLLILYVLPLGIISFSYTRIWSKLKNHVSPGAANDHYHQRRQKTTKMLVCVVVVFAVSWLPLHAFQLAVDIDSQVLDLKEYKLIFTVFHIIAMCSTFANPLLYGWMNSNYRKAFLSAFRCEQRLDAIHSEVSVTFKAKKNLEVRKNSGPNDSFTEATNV

[14] = DRUGMATRIX: Calcium Channel Type L, Benzothiazepine radioligand binding (ligand: [3H] Diltiazem); type: cell membranes, Rattus norvegicus, Wistar, Brain, Membrane; details: Not Active = under 50% inhibition at 10 µM

5-hydroxytryptamine receptor 6, sequence (P50406 whole entry): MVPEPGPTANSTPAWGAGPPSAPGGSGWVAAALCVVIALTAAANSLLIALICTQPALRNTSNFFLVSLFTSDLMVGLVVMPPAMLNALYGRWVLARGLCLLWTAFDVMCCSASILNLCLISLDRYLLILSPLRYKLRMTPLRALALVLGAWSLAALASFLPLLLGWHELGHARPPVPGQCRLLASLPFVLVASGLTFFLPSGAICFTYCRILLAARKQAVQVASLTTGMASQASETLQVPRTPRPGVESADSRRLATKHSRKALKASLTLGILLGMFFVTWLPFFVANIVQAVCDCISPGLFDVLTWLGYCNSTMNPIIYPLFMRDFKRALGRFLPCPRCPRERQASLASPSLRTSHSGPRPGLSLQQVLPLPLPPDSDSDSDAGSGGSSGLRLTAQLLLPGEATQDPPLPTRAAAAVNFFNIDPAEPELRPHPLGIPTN
Kappa-type opioid receptor, sequence (P41145 whole entry): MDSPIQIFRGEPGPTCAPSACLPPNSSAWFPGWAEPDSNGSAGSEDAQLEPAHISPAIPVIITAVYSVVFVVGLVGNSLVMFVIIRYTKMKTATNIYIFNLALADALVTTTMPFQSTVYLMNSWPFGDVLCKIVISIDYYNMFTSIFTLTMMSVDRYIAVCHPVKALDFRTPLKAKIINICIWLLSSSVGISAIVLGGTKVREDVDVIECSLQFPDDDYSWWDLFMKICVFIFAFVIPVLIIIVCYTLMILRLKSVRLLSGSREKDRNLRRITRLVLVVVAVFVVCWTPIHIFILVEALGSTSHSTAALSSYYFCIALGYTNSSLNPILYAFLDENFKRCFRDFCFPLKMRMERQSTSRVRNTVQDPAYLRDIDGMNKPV
Mu-type opioid receptor, sequence (P35372 whole entry): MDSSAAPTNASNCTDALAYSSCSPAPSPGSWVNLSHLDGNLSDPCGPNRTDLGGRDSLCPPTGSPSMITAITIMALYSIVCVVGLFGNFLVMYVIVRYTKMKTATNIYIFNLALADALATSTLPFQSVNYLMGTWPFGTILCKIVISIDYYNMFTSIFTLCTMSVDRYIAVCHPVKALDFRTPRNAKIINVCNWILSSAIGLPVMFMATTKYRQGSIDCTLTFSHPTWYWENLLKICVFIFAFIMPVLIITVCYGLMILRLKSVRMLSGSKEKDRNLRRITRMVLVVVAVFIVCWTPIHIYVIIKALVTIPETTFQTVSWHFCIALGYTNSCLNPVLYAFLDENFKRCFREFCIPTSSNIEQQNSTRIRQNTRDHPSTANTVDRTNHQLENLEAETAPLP
Sigma non-opioid intracellular receptor 1, sequence (Q99720 whole entry): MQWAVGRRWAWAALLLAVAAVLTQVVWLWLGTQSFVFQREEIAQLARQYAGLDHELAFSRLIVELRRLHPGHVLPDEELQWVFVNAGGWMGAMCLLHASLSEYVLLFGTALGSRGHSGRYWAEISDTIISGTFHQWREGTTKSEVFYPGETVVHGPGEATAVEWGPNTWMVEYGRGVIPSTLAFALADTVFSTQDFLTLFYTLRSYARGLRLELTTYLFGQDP
Melanocortin receptor 4, sequence (P32245 whole entry): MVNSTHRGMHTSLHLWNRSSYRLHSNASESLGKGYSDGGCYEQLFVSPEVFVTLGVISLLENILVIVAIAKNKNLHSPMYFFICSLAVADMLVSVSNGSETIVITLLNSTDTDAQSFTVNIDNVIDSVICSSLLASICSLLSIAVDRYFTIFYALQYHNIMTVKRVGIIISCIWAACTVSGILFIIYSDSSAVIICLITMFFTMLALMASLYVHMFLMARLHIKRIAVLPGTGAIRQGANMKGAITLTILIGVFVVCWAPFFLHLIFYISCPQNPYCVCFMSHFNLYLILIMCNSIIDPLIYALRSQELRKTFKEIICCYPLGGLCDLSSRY
Beta-1 adrenergic receptor, sequence (P08588 whole entry): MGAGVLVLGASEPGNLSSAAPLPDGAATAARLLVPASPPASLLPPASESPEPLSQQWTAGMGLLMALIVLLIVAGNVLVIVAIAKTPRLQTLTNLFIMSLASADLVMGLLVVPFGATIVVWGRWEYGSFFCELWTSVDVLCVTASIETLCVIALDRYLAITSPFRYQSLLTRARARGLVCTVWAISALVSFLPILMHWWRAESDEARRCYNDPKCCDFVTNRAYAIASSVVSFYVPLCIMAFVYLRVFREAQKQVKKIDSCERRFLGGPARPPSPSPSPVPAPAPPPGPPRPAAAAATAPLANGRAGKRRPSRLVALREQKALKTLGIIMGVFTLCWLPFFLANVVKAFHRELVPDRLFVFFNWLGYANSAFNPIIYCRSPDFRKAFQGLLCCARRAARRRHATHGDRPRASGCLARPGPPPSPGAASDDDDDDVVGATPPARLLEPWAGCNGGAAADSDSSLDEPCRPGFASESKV

C[C@]12Cc3c[nH]nc3C[C@@H]1CC[C@@H]1[C@@H]2CC[C@@]2(C)[C@H]1CC[C@]2(C)O [STANOZOLOL]
Not Active: IC50 [1] | Ki [1] | IC50 [2] | Ki [2] | IC50 [3] | Ki [3] | IC50 [4] | Ki [4] | IC50 [5] | IC50 (Melanocortin receptor 4) | IC50 [6] | IC50 [7] | IC50 [8] | Ki [8] | IC50 [9] | IC50 [10] | Ki [10] | IC50 [11] | IC50 [12] | IC50 (Mu-type opioid receptor) | IC50 (Endothelin-1 receptor) | IC50 [13] | IC50 [14] | Ki [14]

C=CC[C@@H]1/C=C(\C)C[C@H](C)C[C@H](OC)[C@H]2O[C@@](O)(C(=O)C(=O)N3CCCC[C@H]3C(=O)O[C@H](/C(C)=C/[C@@H]3CC[C@@H](O)[C@H](OC)C3)[C@H](C)[C@@H](O)CC1=O)[C@H](C)C[C@@H]2OC [TACROLIMUS ANHYDROUS]
Not Active: IC50 [1] | Ki [1] | IC50 [2] | Ki [2] | IC50 [3] | Ki [3] | IC50 [4] | Ki [4] | IC50 [5] | IC50 (Melanocortin receptor 4) | IC50 [6] | IC50 [7] | IC50 [8] | Ki [8] | IC50 [9] | IC50 [10] | Ki [10] | IC50 [11] | IC50 [12] | IC50 (Mu-type opioid receptor) | IC50 (Endothelin-1 receptor) | IC50 [13] | IC50 [14] | Ki [14]

CN[C@H](CC(C)C)C(=O)N[C@H]1C(=O)N[C@@H](CC(N)=O)C(=O)N[C@H]2C(=O)N[C@H]3C(=O)N[C@H](C(=O)N[C@H](C(=O)O)c4cc(O)cc(O)c4-c4cc3ccc4O)[C@H](O)c3ccc(c(Cl)c3)Oc3cc2cc(c3O[C@@H]2O[C@H](CO)[C@@H](O)[C@H](O)[C@H]2O[C@H]2C[C@](C)(N)[C@H](O)[C@H](C)O2)Oc2ccc(cc2Cl)[C@H]1O [VANCOMYCIN]
Not Active: IC50 [1] | Ki [1] | IC50 [2] | Ki [2] | IC50 [3] | Ki [3] | IC50 [4] | Ki [4] | IC50 [5] | IC50 (Melanocortin receptor 4) | IC50 [6] | IC50 [7] | IC50 [8] | Ki [8] | IC50 [9] | IC50 [10] | Ki [10] | IC50 [11] | IC50 [12] | IC50 (Mu-type opioid receptor) | IC50 (Endothelin-1 receptor) | IC50 [13] | IC50 [14] | Ki [14]

CN(C)[C@@H]1C(O)=C(C(N)=O)C(=O)[C@@]2(O)C(O)=C3C(=O)c4c(O)cccc4[C@@](C)(O)[C@H]3C[C@@H]12 [TETRACYCLINE]
Not Active: IC50 [1] | Ki [1] | IC50 [2] | Ki [2] | IC50 [3] | Ki [3] | IC50 [4] | Ki [4] | IC50 [5] | IC50 (Melanocortin receptor 4) | IC50 [6] | IC50 [7] | IC50 [8] | Ki [8] | IC50 [9] | IC50 [10] | Ki [10] | IC50 [11] | IC50 [12] | IC50 (Mu-type opioid receptor) | IC50 (Endothelin-1 receptor) | IC50 [13] | IC50 [14] | Ki [14]
